The values below come from patent publication US20020197269A1, “Pharmaceutical composition for immunomodulation and preparation of vaccines” (CISTEM BIOTECHNOLOGIES GMBH, priority 2000, published 2002).

In the oligonucleotide strings, read from the 5' end, every base follows the letter of its sugar. An asterisk marks phosphorothioate; unmarked linkages are phosphodiester. Other units and linkages are bracketed, terminal groups are in braces. A string of capitals states the bases alone. d = 2'-deoxy (DNA)

The series concerns MC1R-peptide (WGPFFLHL) specific IFN-γ-producing cells. Kind of series: IFN-γ-ELISPOT after footpad injection with MC1R-peptide (Example 3). It counts as in vivo, Mice C57B1/6. The note with it: co-injected with MC1R-peptide 300 μg/mouse into hind footpads; 4 days after injection; CpG-ODN 5 nmol/mouse.

For “CpG 1668: thiophosphate substituted ODNs containing a CpG motif: TCCATGACGTTCCTGATGCT (DNA dT*dC*dC*dA*dT*dG*dA*dC*dG*dT*dT*dC*dC*dT*dG*dA*dT*dG*dC*dT)”, the “peptide-specific IFN-γ-producing cells / peptide-specific response (IFN-γ-ELISPOT)” value was “low numbers”.
